Data published in patent US20070213291A1, “Therapeutically useful synthetic oligonucleotides” (priority 1999, published 2007).
Where two headings read alike, the source gives them in different places.

Legend:
[1] = tested on: Jurkat human leukemia T cells; assay: Inhibition of Jurkat human leukemia T cell proliferation (MTT reduction); assay type: cell-based; conditions: for % INHIBITION of Jurkat human leukemia T cell proliferation: 100 μg/ml sequence, 48 h, 2.5×10^5 cells/ml
In short: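 Jurkat cells at 2.5×10^5 cells/ml exposed to 100 μg/ml of 2–45-base A/C/G/T sequences (0 μg/ml control) for 48 h, 37° C, 5% CO2. Viability by MTT reduction read at 570 nm.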

[2] = tested on: MCF-7 human breast cancer cells; assay: Inhibition of MCF-7 cell proliferation (MTT); assay type: cell-based; conditions: for inhibition at 1 µg/mL: Homo sapiens, MCF7
In short: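 Cells at 2.5×10^5 cells/ml (GT 3- and 6-base series at 5×10^5 cells/ml) treated with 100 μg/ml of 2-45-base oligonucleotide sequences versus untreated control for 48 h at 37 °C, 5% CO2. Proliferation read by MTT reduction at 570 nm.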

[3] = tested on: MCF-7 human breast cancer cells; assay: MCF-7 human breast tumor xenografts in female nude BALB/c mice; assay type: in vivo; conditions: after 4 weeks of treatment, compared with other groups (group 1 saline)
Description: MCF-7 human breast cancer cells are implanted subcutaneously as xenografts, in female nude BALB/c mice. The mice are divided into 6 groups of 10 mice. […] After 4 weeks of treatment, the mice are sacrificed and tumor mass is determined.

[4] = tested on: Jurkat human leukemia T cells; assay: Apoptosis by phosphatidylserine/annexin V-FITC flow cytometry; assay type: cell-based; conditions: 50 μM sequence
In short: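 Jurkat cells were exposed to 3–7-base oligonucleotides (GT, ACGT, AG, GG, AGT, CGT sequences) at 50 μM. Separately, 6-base GT and complementary AC sequences, alone or hybridized 1:1 (10 min, 65 °C), were applied for 24 h. Phosphatidylserine exposure was quantified by flow cytometry with FITC-annexin V.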

[5] = tested on: Jurkat human leukemia T cells; assay: NuMA release into supernatant (ELISA); assay type: cell-based; conditions: Jurkat, 50 μM sequence
In short: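 Jurkat T cells (1×10^6/ml) exposed to GT-containing oligonucleotide sequences, at 50 μM in some experiments, for 24 h in some experiments. NuMA released into the supernatant quantified by commercial ELISA.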

[6] = tested on: THP-1 human acute monocytic leukemia cells; assay: Cytokine production by THP-1 cells (ELISA); assay type: cell-based; conditions: THP-1, 1×10^6 cells, 100 μg/ml, 48 h; for ↑ IL-12 (fold increase treated vs control cells): p70 complex and free p40
In short: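 1×10^6 cells exposed to 100 μg/ml of each oligonucleotide sequence for 48 h at 37° C in 5% CO2, unless stated otherwise. Cytokines quantified in culture supernatant by ELISA, IL-12 assay detecting both p70 and free p40; values are fold increase over untreated control cells.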

[7] = tested on: human peripheral blood mononuclear cells; assay: Cytokine production by human PBMC (ELISA); assay type: cell-based; conditions: PBMC of 7 healthy humans, 100 μg/ml, 48 h
In short: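 PBMC from 7 healthy donors, Ficoll-isolated; 1×10^6 cells incubated with 100 μg/ml oligonucleotide sequence for 48 h at 37 °C, 5% CO2. IL-1beta, IL-6, IL-10, IL-12 (p70 plus free p40) and TNF-alpha measured by ELISA in supernatant, expressed as fold increase over control cells.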

chimpanzee PBMCs = assay: Cytokine production by chimpanzee PBMC (ELISA); assay type: cell-based; conditions: PBMC of 4 healthy chimpanzees, 100 μg/ml, 48 h
In short: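 PBMCs from 4 healthy chimpanzees (1×10^6 cells) were incubated 48 h at 37 °C, 5% CO2 with 100 μg/ml of each 6-base sequence. Supernatant IL-10, IL-12 (p70 plus free p40) and TNF-alpha were measured by ELISA. Values are fold increase over untreated control cells.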

rhesus monkey PBMCs = assay: Cytokine production by rhesus monkey PBMC (ELISA); assay type: cell-based; conditions: PBMC of 4 healthy rhesus monkeys, 100 μg/ml, 48 h
In short: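 Peripheral blood mononuclear cells taken from 4 healthy rhesus monkeys were cultured at 1×10^6 cells with 100 μg/ml of each test sequence for 48 h at 37° C. under 5% CO2. Cytokine levels in 100 μl of supernatant were quantified in pg/ml by commercial ELISA and reported as fold increase over untreated control cells.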

[8] = tested on: LNCaP human prostate cancer cells; assay: LNCaP human prostate cancer xenografts in male nude nu/nu mice; assay type: in vivo; conditions: after 4 weeks of treatment, compared with other groups (group 1 saline, group 5 BCG A-3)
Description: LNCaP human prostate cancer cells are implanted subcutaneously, as xenografts, in male nude nu/nu mice. The mice are divided into 5 groups of 10 mice. On day 0, group 1 mice receive saline, group 2 mice receive 3 base SEQ ID NO:8, group 3 mice receive 6 base GT SEQ ID NO:25, group 4 mice receive 6 base AG SEQ ID NO:45 and group 5 mice receive 45 base BCG A-3 SEQ ID NO:69. After 4 weeks of treatment, the mice are sacrificed and timor mass is determined.

[9] = tested on: EL-4 murine T lymphoma cells; assay: EL-4 murine T lymphoma in C57/BL6 mice; assay type: in vivo; conditions: after 4 weeks of treatment, compared with group 1 (saline)
Description: EL-4 murine T lymphoma cells are implanted into C57/BL6 mice. The mice are divided into 6 groups of 10 mice. On day 0, group 1 mice receive saline, group 2 mice receive 3 base GT SEQ ID NO:8, group 3 mice receive 6 base SEQ ID NO:25, group 4 mice receive 6 base AG SEQ ID NO:45, group 5 mice receive 18 base GT SEQ ID NO: 18 and group 6 mice receive 27 base GT SEQ ID NO:1. After 4 weeks of treatment, the mice are sacrificed and tumor mass is determined.

[10] = tested on: PC-3 human prostate cancer cells; assay: Inhibition of PC-3 cell proliferation (MTT); assay type: cell-based; conditions: 100 μg/ml, 48 h, 5×10^5 cells/ml
Description: (§1) Cells were seeded in 6 (1 ml/well), 24 (0.5 ml/well) or 96 (0.1 ml/well) well flat-bottom microplates and were maintained at 37° C. in a 5% CO2 atmosphere. Unless stated otherwise, 2.5×10^5 cells/ml were incubated with 0 μg/ml (control) and 100 μg/ml (treated) of 2 to 45 base sequences containing A, C, G and T for 48 h.
(§2) Cell proliferation was measured using dimethylthiazol-diphenyl-tetrazolium (MTT) reduction (Mosman et al. J. Immunol. Methods 65:55, 1983). MTT was measured at a wavelength of 570 nm using a multiplate spectrophotometer reader (ELX800, Bio-TEK Instruments Inc., Winooski, Vt.).
PC-3 prostate cancer cells are a p53 mutated, androgen-independent human solid tumor model. PC-3 cells (5×10^5 cells/ml) were incubated with 3 and 6 base GT sequences (Table 8).

[11] = tested on: OVCAR-3 human ovarian cancer cells; assay: Inhibition of OVCAR-3 cell proliferation (MTT); assay type: cell-based; conditions: 100 μg/ml, 48 h, 5×10^5 cells/ml
Description: as §1, §2
OVCAR-3 ovarian cancer cells are a p53 mutated, p21/waf-1/Cip deleted, metastatic human solid tumor model. OVCAR-3 cells (5×10^5 cells/ml) were incubated with 2, 6 and 18 base GT sequences and with a 6 base AGT sequence (Table 11).

[12] = tested on: SK-OV-3 human ovarian cancer cells; assay: Inhibition of SK-OV-3 cell proliferation (MTT); assay type: cell-based; conditions: 100 μg/ml, 48 h, 5×10^5 cells/ml
Description: as §1, §2
SK-OV-3 ovarian cancer cells are a p53 mutated, p21/waf-1/Cip deleted, p15^ink4B deleted, p16^Ink4 deleted, metastatichuman solid tumor model. SK-OV-3 cells (5×10^5 cells/ml) were incubated with 2, 6 and 18 base GT sequences (Table 12).

[13] = tested on: EL-4 murine T lymphoma cells; assay: Inhibition of EL-4 cell proliferation (MTT); assay type: cell-based; conditions: 100 μg/ml, 48 h
Description: as §1, §2
EL-4 murine lymphoma T cells are a suspension tumor model. EL-4 murine lymphoma T cells were incubated with 6, 18, 27 and 33 base GT sequences and with a 15 base ACG sequence (Table 18).

[14] = tested on: Jurkat human leukemia T cells; assay: Cell cycle stage in Jurkat cells (propidium iodide flow cytometry); assay type: cell-based; conditions: Jurkat, 24 h, 100 μg/ml
In short: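 Exponentially growing Jurkat cells were exposed for 24 h to 2–45-base A/C/G/T oligonucleotides, or at 1×10^6 cells/ml to 6-base GT and AC strands, alone (heated 10 min, 65 °C) or hybridized 1:1. Detergent-, trypsin-, RNase- and spermine-treated nuclei were propidium iodide-stained and scored for G0/G1, early/mid/late S and G2/M by doublet-discriminating flow cytometry.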

[15] = tested on: MCF-7 human breast cancer cells; assay: Cell cycle stage in MCF-7 cells (propidium iodide flow cytometry); assay type: cell-based; conditions: MCF-7, 5×10^5 cells/ml, 24 h
Description: Cell cycle stage was determined using a […]™ PLUS DNA commercial kit (Becton Dickinson). Briefly, nuclei from cells were obtained by dissolving the cell membrane in a nonionic detergent, eliminating the cell cytoskeleton and nuclear proteins with trypsin, digesting the cellular RNA with RNase and stabilizing the nuclear chromatin with spermine. Propidium iodide was added to the cell nuclei and their fluorescence was analyzed in a flow cytometer equipped with electronic doublet discrimination capability (FACSCalibur, Becton Dickinson, San Jose, Calif.). Accumulation of cells in G0/G1, early S (SE), mid S (SM), late S (SL) or G2/M phases of the cell cycle was analyzed using MODFIT LT software (Verity Software House Inc., Topsham, Mass.).
Exponentially growing Jurkat human leukemia T cells (Table 28) and MCF-7 human breast cancer cells (5×10^5 cells/ml) (Table 29) were incubated for 24 h with 2, 6, 15, 18, 27 and 45 base sequences containing A, C, G and T. The cells were collected and centrifuged and cell cycle stage was determined.

[16] = 5-fluorouracil 0.1 μg/ml, alone or with sequence at 1.0 μg/ml

Compound | tumor mass [3] | % INHIBITION of Jurkat human leukemia T cell proliferation [1] [%] | % of cells in apoptosis (positive for PS/A-V staining) [4] [%] | % NuMA released (treated vs untreated cells) [5] [%] | ↑ IL-6 (fold increase treated vs control cells) [6] [x] | ↑ IL-12 (fold increase treated vs control cells) [6] [x] | tumor mass [8] | tumor mass [9] | % of cells in phase: G0/G1 [14] [%] | % of cells in phase: G2/M [14] [%] | % of cells in phase: SE [14] [%] | % of cells in phase: SL [14] [%] | % of cells in phase: SM [14] [%] | Arrest (cell cycle) [14] | further results
O=c1[nH]cc(F)c(=O)[nH]1 [5-Fluorouracil, reference compound] | less tumor mass than group 1 mice |  |  |  |  |  |  |  |  |  |  |  |  |  | % INHIBITION of Jurkat proliferation, 5-Fluorouracil 0.1 μg/ml [1, 16]: 3%; % INHIBITION of Jurkat proliferation, 5-Fluorouracil 10.0 μg/ml ([1]; 5-fluorouracil 10.0 μg/ml, alone or with sequence at 1.0 μg/ml): 38%; inhibition at 1 µg/mL ([1]; Homo sapiens, Jurkat, 5-fluorouracil 1.0 μg/ml, alone or with sequence at 1.0 μg/ml): 14%; % INHIBITION of MCF-7 proliferation, 5-Fluorouracil 0.1 μg/ml [2, 16]: 13%; inhibition at 1 µg/mL ([2]; 5-fluorouracil 1.0 μg/ml, alone or with sequence at 1.0 μg/ml, read-out: % INHIBITION of MCF-7 proliferation, 5-Fluorouracil 1.0 μg/ml): 28%
CC/C(=C(\c1ccccc1)c1ccc(OCCN(C)C)cc1)c1ccccc1 [Tamoxifen, reference compound] | less tumor mass than group 1 mice |  |  |  |  |  |  |  |  |  |  |  |  |  | inhibition at 1 µg/mL ([2]; tamoxifen 1.0 μg/ml, alone or with sequence at 1.0 μg/ml, read-out: % INHIBITION of MCF-7 proliferation, Tamoxifen 1.0 μg/ml): 18%; % INHIBITION of MCF-7 proliferation, Tamoxifen 0.1 μg/ml ([2]; tamoxifen 0.1 μg/ml, alone or with sequence at 1.0 μg/ml): 10%; % INHIBITION of MCF-7 proliferation, Tamoxifen 10.0 μg/ml ([2]; tamoxifen 10.0 μg/ml, alone or with sequence at 1.0 μg/ml): 15%
GGGAGG (unmodified DNA) [SEQ ID NO:45] |  | 28 | 27 | 74 | 23.2 | −1.6 | less tumor mass than groups 1 and 5 mice | less tumor mass than group 1 mice |  |  |  |  |  |  | IL-1 beta fold increase: mean +/− SD [7]: 13.6 +/− 14.9 fold increase; IL-6 fold increase: mean +/− SD [7]: 24.7 +/− 16.5 fold increase; IL-10 fold increase: mean +/− SD [7]: 6.0 +/− 5.5 fold increase; IL-12 fold increase: mean +/− SD [7]: 20.7 +/− 10.3 fold increase; IL-10 fold increase: mean +/− SD (chimpanzee PBMCs): 9.9 +/− 9.2 fold increase; IL-12 fold increase: mean +/− SD (chimpanzee PBMCs): 15.9 +/− 10.7 fold increase; TNF-alpha fold increase: mean +/− SD (chimpanzee PBMCs): 14.5 +/− 6.9 fold increase; IL-10 fold increase: mean +/− SD (rhesus monkey PBMCs): 1.1 +/− 0.1 fold increase; IL-12 fold increase: mean +/− SD (rhesus monkey PBMCs): 11.9 +/− 4.5 fold increase; TNF-alpha fold increase: mean +/− SD (rhesus monkey PBMCs): 16.7 +/− 4.6 fold increase
GTG (chemistry not given here) [SEQ ID NO:8] |  | 46 | 21 | 97 |  |  | less tumor mass than groups 1 and 5 mice | less tumor mass than group 1 mice |  |  |  |  |  |  | % INHIBITION of MCF-7 human breast cancer cell proliferation ([2]; 100 μg/ml, 48 h, 5×10^5 cells/ml): 18%; % INHIBITION of PC-3 human prostate cancer cell proliferation [10]: 13%
GTGTGTGTGTGTGTGTGT (unmodified DNA) [SEQ ID NO:18] |  | 60 |  |  | 2.8 |  |  | less tumor mass than group 1 mice | 24.2 | 16.4 | 26.7 | 8.7 | 24.0 | Mid SM | % INHIBITION of OVCAR-3 human ovarian cancer cell proliferation [11]: 10%; % INHIBITION of SK-OV-3 human ovarian cancer cell proliferation [12]: 6%; % INHIBITION of EL-4 murine T lymphoma cell proliferation [13]: −2%; % cells in phase: G0/G1 [15]: 25.3%; % cells in phase: G2/M [15]: 15.7%; % cells in phase: SE [15]: 31.6%; % cells in phase: SL [15]: 10.5%; % cells in phase: SM [15]: 16.9%; Arrest (cell cycle) [15]: Mid SM
TCCATCGCCAAGGAGATCGAGCTGGAGGATCCGTACGAGAAGATC (unmodified DNA) [BCG A-3, reference compound] |  | 24 |  |  | 2.5 | 1.7 | less tumor mass than group 1 mice |  | 32.3 | 21.4 | 20.2 | 12.0 | 14.1 | None | 
